Consider two compounds from US5891458A, “Bioerodible device for administering active ingredients” (priority 1997, dated 1999).

Details of data set [1]: species or system Sprague-Dawley rats. The following applies: rat, in vivo. The protocol:
The devices prepared in Example 2 were evaluated in ovariectomized Sprague-Dawley rats. The rats were ovariectomized 2 weeks prior to testing. On the test day the animals were anesthetized with ether and administered with either 10 ug of 17 B-estradiol in sesame oil [0.2 ml by subcutaneous (S.C.) or ingestion (I.G.) routes] or a soluble device containing an equal amount of estradiol placed buccally. Animals were kept anesthetized for approximately 10 minutes after estradiol administration. Trunk blood was collected at various times thereafter.

Another data set deals with diestrus rat. As to the kind of experiment: In-vivo delivery study of histrelin buccal device: induction of ovulation in the diestrus rat. The conditions noted are these: for ED50 dose (inducing ovulation): buccal tablet. The method, then: The study was designed to measure the ability of the histrelin delivered by the soluble buccal devices of the invention to induce ovulation in the diestrus rat. Devices were prepared by punching 7 mm tablets from the tray containing the lyophilized foam. Each tablet theoretically contained 297 ug of histrelin. Whole, halved and quartered tablets were then placed in the buccal cavity of diestrus rats anesthetized with ether. After 10 minutes the device was absorbed. The following day the rats were sacrificed and the oviducts removed and examined for the presence of ova.

The mark [2] stands for this setting: half buccal tablet, histrelin 150 ug.
[3] abbreviates: quarter buccal tablet, histrelin 75 ug.
Where [4] appears, read: whole buccal tablet, histrelin 300 ug.

For `C[C@]12CC[C@@H]3c4ccc(O)cc4CC[C@H]3[C@@H]1CC[C@@H]2O` [Estradiol, 17 B-estradiol], the “bioavailability of estradiol administered buccally” value in data set [1] is “greater than oral administration but less than administered by injection”.
As to `CCNC(=O)[C@@H]1CCCN1C(=O)[C@H](CCCNC(=N)N)NC(=O)[C@H](CC(C)C)NC(=O)[C@@H](Cc1cn(Cc2ccccc2)cn1)NC(=O)[C@H](Cc1ccc(O)cc1)NC(=O)[C@H](CO)NC(=O)[C@H](Cc1c[nH]c2ccccc12)NC(=O)[C@H](Cc1cnc[nH]1)NC(=O)[C@@H]1CCC(=O)N1` [Histrelin], in the data set with diestrus rat (buccal cavity of anesthetized diestrus rats), the “time after which the device was absorbed” value came to 10 min. The “ED50 dose (inducing ovulation)” value with diestrus rat (per body weight) was roughly 0.3 mg/kg; with diestrus rat (per rat) it was “approximately 75 ug/rat”. The “inducing ovulation (result in words)” value in the data set with diestrus rat (buccal tablets) is “effective in inducing ovulation in a dose-dependent manner”. The “# of Rats Ovulating/Total # of Rats” value in the data set on diestrus rat (setting [2]) is 4/5; in the data set on diestrus rat (setting [3]), 4/6; in the data set with diestrus rat (setting [4]) it was 6/6. The Ova/Rat with diestrus rat (setting [2]) was determined as 8; in the data set on diestrus rat (setting [3]), 6; with diestrus rat (setting [4]), 13.
